Measured values from patent US20240067657A1, “AMIDO-SUBSTITUTED PYRIDYL COMPOUNDS AND METHODS OF USE THEREOF FOR THE TREATMENT OF HERPESVIRUSES” (Merck Sharp & Dohme LLC, priority 2020, published 2024).
Where two headings read alike, the source gives them in different places.

Experiments:
[1] = molecular target: T1, Human cytomegalovirus DNA polymerase (Human cytomegalovirus, UniProt P08546); assay: HCMV polymerase assay (AlphaLISA, IC50); type: biochemical; conditions: polymerase assay of Example 190
T1 construct: made in house; host or cells: SF21 insect cells (baculovirus vector)
T1 sequence (P08546 whole entry): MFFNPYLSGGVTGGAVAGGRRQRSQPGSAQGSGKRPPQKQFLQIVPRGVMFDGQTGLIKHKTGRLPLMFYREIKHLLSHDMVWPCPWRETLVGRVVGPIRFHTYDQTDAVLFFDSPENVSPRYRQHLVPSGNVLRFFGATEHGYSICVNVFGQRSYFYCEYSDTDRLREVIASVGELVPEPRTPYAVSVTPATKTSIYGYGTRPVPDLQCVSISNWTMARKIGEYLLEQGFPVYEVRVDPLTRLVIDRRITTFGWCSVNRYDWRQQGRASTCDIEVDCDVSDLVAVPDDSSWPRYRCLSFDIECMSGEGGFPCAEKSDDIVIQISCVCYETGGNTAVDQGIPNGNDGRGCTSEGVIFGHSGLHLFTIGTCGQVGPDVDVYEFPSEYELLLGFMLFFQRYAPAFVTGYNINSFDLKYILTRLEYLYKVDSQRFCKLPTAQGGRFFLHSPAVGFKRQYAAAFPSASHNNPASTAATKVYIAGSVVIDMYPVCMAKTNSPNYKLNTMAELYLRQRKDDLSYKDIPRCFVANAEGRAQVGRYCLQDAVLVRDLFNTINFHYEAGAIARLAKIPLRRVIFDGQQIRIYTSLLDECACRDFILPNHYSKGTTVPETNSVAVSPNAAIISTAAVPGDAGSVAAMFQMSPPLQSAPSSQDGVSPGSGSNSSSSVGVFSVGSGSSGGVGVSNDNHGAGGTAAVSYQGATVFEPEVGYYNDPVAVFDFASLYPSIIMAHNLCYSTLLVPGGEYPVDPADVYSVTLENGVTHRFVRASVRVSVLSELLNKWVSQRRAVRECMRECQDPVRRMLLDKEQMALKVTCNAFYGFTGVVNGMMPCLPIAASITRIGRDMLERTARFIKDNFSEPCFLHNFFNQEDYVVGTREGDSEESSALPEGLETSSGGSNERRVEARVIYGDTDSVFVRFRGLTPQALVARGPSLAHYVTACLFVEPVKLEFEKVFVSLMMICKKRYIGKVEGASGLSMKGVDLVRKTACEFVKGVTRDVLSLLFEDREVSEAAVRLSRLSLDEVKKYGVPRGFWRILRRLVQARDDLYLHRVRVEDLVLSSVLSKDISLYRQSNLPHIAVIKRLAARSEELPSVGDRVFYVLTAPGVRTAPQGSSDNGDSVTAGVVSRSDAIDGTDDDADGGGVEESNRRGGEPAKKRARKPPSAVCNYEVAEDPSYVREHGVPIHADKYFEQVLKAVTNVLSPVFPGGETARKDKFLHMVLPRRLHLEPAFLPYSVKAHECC
Description: (§1) Human cytomegalovirus and varicella zoster virus DNA polymerases were expressed via baculovirus vector in SF21 cells and purified. Heterodimeric nucleic acid substrate used in the herpesvirus polymerase reactions was generated by annealing a 59-mer template to a 17-mer digoxigenin-labeled primer. Polymerase (HCMV final concentration of 0.2 nM; VZV final concentration of 0.4 nM) was combined with an inhibitor compound or DMSO in assay buffer (10 mM HEPES, pH 7.5, 25 mM KCl, 25 mM NaCl, 5 mM MgCl2, 5% glycerol, 0.67 mg/ml bovine serum albuminutes, and 1 mM tris(2-carboxyethyl)phosphine), and this mixture was pre-incubated for 30 minutes at room temperature in 384-well microtiter plates. The polymerization reaction was initiated by the addition of template/primer substrate (final concentration: 1.6 nM), and dNTPs (final concentration: 24 nM dCTP, 24 nMdGTP, 16 nM dATP, 16 nM dTTP, and 0.8 nM biotin-dUTP). After 60 minutes incubation at 37° C., reactions were terminated with quench buffer (25 mM HEPES pH 7.5, 100 mM NaCl, 0.25% Tween-20, 12 mM EDTA, and 1 mg/ml bovine serum albumin). Incorporation of biotinylated UTP was detected with 2.5-5 ug/ml anti-DIG AlphaLISA acceptor beads and 5-10 ug/ml streptavidin AlphaLISA donor beads (Perkin Elmer). Compound effects were normalized to the window defined by the controls (DMSO only and pre-quenched wells), and were fit using a 4-parameter algorithm to report an IC50.

[2] = molecular target: T2, varicella zoster virus DNA polymerase (Varicella-zoster virus, UniProt P09252); assay: VZV polymerase assay (AlphaLISA, IC50); type: biochemical; conditions: polymerase assay of Example 190
T2 construct: made in house; host or cells: SF21 insect cells (baculovirus vector)
T2 sequence (P09252 whole entry): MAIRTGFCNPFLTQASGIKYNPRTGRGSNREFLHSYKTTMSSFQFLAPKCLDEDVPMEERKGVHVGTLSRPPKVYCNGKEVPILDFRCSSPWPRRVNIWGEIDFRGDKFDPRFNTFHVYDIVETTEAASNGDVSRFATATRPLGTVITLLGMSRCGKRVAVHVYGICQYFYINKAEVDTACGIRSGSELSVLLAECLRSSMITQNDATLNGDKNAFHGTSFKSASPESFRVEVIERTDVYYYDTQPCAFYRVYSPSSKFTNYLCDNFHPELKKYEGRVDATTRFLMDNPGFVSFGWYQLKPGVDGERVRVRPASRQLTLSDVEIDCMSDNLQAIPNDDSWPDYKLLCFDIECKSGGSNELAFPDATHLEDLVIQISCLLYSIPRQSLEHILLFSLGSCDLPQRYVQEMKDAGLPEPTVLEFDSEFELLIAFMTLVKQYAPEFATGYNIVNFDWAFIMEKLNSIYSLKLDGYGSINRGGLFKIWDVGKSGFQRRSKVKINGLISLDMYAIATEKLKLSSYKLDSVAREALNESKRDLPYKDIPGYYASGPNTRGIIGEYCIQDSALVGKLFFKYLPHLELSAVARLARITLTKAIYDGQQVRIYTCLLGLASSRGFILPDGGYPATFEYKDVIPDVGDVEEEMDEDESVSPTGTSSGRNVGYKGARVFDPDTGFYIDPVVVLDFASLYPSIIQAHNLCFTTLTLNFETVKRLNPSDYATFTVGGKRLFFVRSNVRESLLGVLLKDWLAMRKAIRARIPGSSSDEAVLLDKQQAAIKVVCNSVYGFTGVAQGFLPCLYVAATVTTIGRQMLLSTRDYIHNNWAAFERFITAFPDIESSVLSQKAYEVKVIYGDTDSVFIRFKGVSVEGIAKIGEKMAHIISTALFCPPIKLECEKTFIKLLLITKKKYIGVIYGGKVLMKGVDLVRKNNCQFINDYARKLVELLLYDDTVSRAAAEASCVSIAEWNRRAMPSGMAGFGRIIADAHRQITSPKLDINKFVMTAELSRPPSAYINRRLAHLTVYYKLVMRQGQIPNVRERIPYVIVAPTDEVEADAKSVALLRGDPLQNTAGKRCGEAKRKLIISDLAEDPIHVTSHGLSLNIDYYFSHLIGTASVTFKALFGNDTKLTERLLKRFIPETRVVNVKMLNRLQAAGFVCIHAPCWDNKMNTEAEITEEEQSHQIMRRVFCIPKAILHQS
Description: as §1

[3] = tested on: HCMV Strain AD169 in MRC-5 cells; assay: Viral qPCR assay HCMV (V0/V1, V2/V3), EC50; type: cell-based; conditions: Human betaherpesvirus 5, AD169, MRC5, viral qPCR assay of Example 191; read-out: HCMV Cell (EC50)
Description: (§2) Viral qPCR Assays (V0/V1)
(§3) MRC5 cells, Vero cells, and MeWo cells were obtained from ATCC and were maintained at 37° C./5% CO2/90% relative humidity in Minimal Essential Medium with 10% fetal bovine serum, […] L-glutamine, 100 units/ml penicillin and 100 ug/ml streptomycin. Assay plates were prepared by dispensing compounds dissolved in DMSO into wells of 384 well collagen-coated plates using an ECHO acoustic dispenser. Each compound was tested in a 10-point, serial 3-fold dilution. Controls included uninfected cells and infected cells treated only with DMSO. Assays were initiated by mixing selected cells, in suspension, with virus, and dispensing 50 μl/well infected cells to pre-plated compounds. Plates were incubated at 37° C./5% CO2/90% relative humidity for ˜72 hrs to permit genomic replication, and infected cells were lysed by the addition of an equal volume of lysis buffer (10 mM Tris-HCl, pH8, 50 mM KCl, 2 mM MgCl2, 0.45% NP-40, 0.45% Tween-20, and 100 μg/ml proteinase K). An aliquot of the lysate was transferred to a 384-well PCR plate and incubated at 56° C. for 1 hour and then at 95° C. for 10 min. Levels of a viral gene and of the cellular control, PPIA (Thermo Fisher Assay ID=Hs04194521_s1), were measured in separate 10 μL qPCR assays using TaqMan® Gene Expression Master Mix (Applied Biosystems), and an 7900HT Fast Real-Time PCR System with 384-Well Block Module. 7-point, serial 10-fold dilutions of a plasmid standard were run on each plate to generate a standard curve, and genome copies numbers were calculated by plotting experimental Ct onto linear regression of the standard curve. Viral genome copy numbers were normalized by cellular control copy number, and compound effects were normalized to the window defined by the controls. Calculated % effects were fit using a 4-parameter algorithm, and EC50 was reported.
(§4) Viral qPCR Assays (V2/V3)
as §3, with “gene” for “gene and of the cellular control, PPIA (Thermo Fisher Assay ID=Hs04194521_s1),”, “in” for “in separate”, “Compound effects on viral” for “Viral”, “number” for “numbers were normalized by cellular control copy number, and compound effects”, “reported. • HCMV: Strain AD169 Street was assayed in MRC-5 cells and was used at 0.05-0.1 pfu/cell. The assays were performed in either growth media or in the same media with 50% fetal bovine serum. Primer-probe set was Thermo Fisher Assay ID=AIFATFK. • VZV: Strain Street was maintained as an infected cell stock in MRC-5 cells. It was assayed in MeWo or MRC5 cells and was used at 0.04-0.1 pfu/cell. […]” for “reported.”

[4] = tested on: HSV-1 Strain F in Vero or MRC5 cells; assay: Viral qPCR assay HSV-1 (V0/V1, V2/V3), EC50; type: cell-based; conditions: 10%
Description: as §2, §3, §4
as §3, with “gene” for “gene and of the cellular control, PPIA (Thermo Fisher Assay ID=Hs04194521_s1),”, “in” for “in separate”, “Compound effects on viral” for “Viral”, “number” for “numbers were normalized by cellular control copy number, and compound effects”, “reported. • HCMV: Strain AD169 Street was assayed in MRC-5 cells and was used at 0.05-0.1 pfu/cell. The assays were performed in either growth media or in the same media with 50% fetal bovine serum. Primer-probe set was Thermo Fisher Assay ID=AIFATFK. • VZV: Strain Street was maintained as an infected cell stock in MRC-5 cells. It was assayed in MeWo or MRC5 cells and was used at 0.04-0.1 pfu/cell. […]” for “reported.”

[5] = tested on: VZV in MeWo or MRC5 cells; assay: Viral qPCR assay VZV (V0/V1, V2/V3), EC50; type: cell-based; conditions: Human alphaherpesvirus 3, MRC5, MRC5 cells, 10%; read-out: VZV Cell (EC50) MRC5 10%
Description: as §2, §3, §4
as §3, with “gene” for “gene and of the cellular control, PPIA (Thermo Fisher Assay ID=Hs04194521_s1),”, “in” for “in separate”, “Compound effects on viral” for “Viral”, “number” for “numbers were normalized by cellular control copy number, and compound effects”, “reported. • HCMV: Strain AD169 Street was assayed in MRC-5 cells and was used at 0.05-0.1 pfu/cell. The assays were performed in either growth media or in the same media with 50% fetal bovine serum. Primer-probe set was Thermo Fisher Assay ID=AIFATFK. • VZV: Strain Street was maintained as an infected cell stock in MRC-5 cells. It was assayed in MeWo or MRC5 cells and was used at 0.04-0.1 pfu/cell. […]” for “reported.”

[6] = Human alphaherpesvirus 1, Vero, VERO cells, read-out: HSV1 Cell (EC50) VERO 10%
[7] = Human alphaherpesvirus 1, MRC5, MRC5 cells, read-out: HSV1 Cell (EC50) MRC5 10%

Row | SMILES | IC50 [1] | IC50 [2] | EC50 [3] | EC50 [4, 6] | EC50 [5] | EC50 [4, 7]
1 | O=C(NCc1ccc(Cl)cc1)c1cc(O[C@H]2CCN3C(=O)OC[C@@H]3C2)c(CC2CCCO2)cn1 (mixture of isomers) [Compound 113] | 56.6 nM | 18.4 nM | 357 nM | 227 nM |  | 
2 | O=C(NCc1ccc(Cl)cc1)c1cc(O[C@@H]2CCN3C(=O)OC[C@H]3C2)c(-c2cn[nH]c2)cn1 (racemic) [Compound 25] | 13.9 nM | 4.44 nM | 259 nM | 1670 nM |  | 
3 | O=C(NCc1ccc(Cl)cc1)c1cc(O[C@H]2CCN3C(=O)OC[C@@H]3C2)c(-c2ncco2)cn1 [Compound 4] | 59.1 nM | 20.3 nM | 292 nM | 210 nM |  | 
4 | CC(=O)N1CCC(Oc2cc(C(=O)NCc3ccc(Cl)cc3)ncc2C#Cc2ccc(C)cn2)CC1 [Compound 71] | 172 nM | 119 nM | 1510 nM | 354 nM |  | 
5 | CC(=O)N1CCC(Oc2cc(C(=O)NCc3ccc(Cl)cc3)ncc2/C=C/CC(C)O)CC1 (centres unmarked) [Compound 72] | 68.8 nM | 51.8 nM | 855 nM | 1110 nM |  | 
6 | CC(=O)N1CCC(Oc2cc(C(=O)NCc3ccc(Cl)cc3)ncc2/C=C/CO)CC1 [Compound 73] | 93.2 nM | 45 nM | 1780 nM | 842 nM |  | 
7 | Cn1cc(-c2cnc(C(=O)N3CCCC3c3ccc(Cl)cc3)cc2O[C@H]2CCN3C(=O)OC[C@@H]3C2)cn1 (some centres unmarked) [Compound 100] | 983 nM | 426 nM |  |  |  | 
8 | CC(=O)N1CCC(Oc2cc(C)nc(C(=O)NCc3ccc(Cl)cc3)c2)CC1 [Compound 101] | 2020 nM | 1300 nM |  |  |  | 
9 | N#Cc1cc(O[C@H]2CCN3C(=O)OC[C@@H]3C2)cc(C(=O)NCc2ccc(Cl)cc2)n1 [Compound 128] | 169 nM |  | 1780 nM |  | 5340 nM | 8330 nM
10 | O=C(NCc1ccc(Cl)cc1)c1cc(O[C@H]2CCN3C(=O)OC[C@@H]3C2)c(-c2cnc(CO)o2)cn1 [Compound 148b] | 1.89 nM |  | 102 nM |  | 220 nM | 116 nM
11 | CC(=O)N1CCC(Oc2cc(C(=O)NCc3ccc(Cl)cc3)ncc2-c2nnc(C)o2)CC1 [Compound 153] | 66.2 nM |  | 478 nM |  | 913 nM | 636 nM
12 | C[C@@H]1CN(C)CCN1c1cc(C(=O)NCc2ccc(C#N)cc2)ncc1C#N [Compound 172] | 128 nM |  | 419 nM |  | 4060 nM | 4190 nM
13 | CN1CCN(c2cc(C(=O)NCc3ccc(Cl)cc3)ncc2C#N)[C@H](CF)C1 [Compound 173] | 12.3 nM |  | 279 nM |  | 682 nM | 833 nM
14 | CN1CCN(c2cc(C(=O)NCc3ccc(C#N)cc3)ncc2C#N)[C@H](CF)C1 [Compound 174] | 36.5 nM |  | 472 nM |  | 1190 nM | 966 nM
15 | O=C(c1cc(O[C@H]2CCN3C(=O)OC[C@@H]3C2)c(-c2cnn(C(F)F)c2)cn1)N(CO)Cc1ccc(Cl)cc1 [Compound 180] | 29.2 nM |  | 183 nM |  | 265 nM | 176 nM
16 | O=C(OCN(Cc1ccc(Cl)cc1)C(=O)c1cc(O[C@H]2CCN3C(=O)OC[C@@H]3C2)c(-c2cnn(C(F)F)c2)cn1)C1CCOCC1 [Compound 182] | 227 nM |  | 148 nM |  | 213 nM | 105 nM
17 | CN1CCC(N2CCC(C(=O)OCN(Cc3ccc(Cl)cc3)C(=O)c3cc(O[C@H]4CCN5C(=O)OC[C@@H]5C4)c(-c4cnn(C(F)F)c4)cn3)CC2)CC1 [Compound 184] | 894 nM |  | 519 nM |  | 314 nM | 173 nM
18 | CC(C)[C@H](N)C(=O)OCN(Cc1ccc(Cl)cc1)C(=O)c1cc(O[C@H]2CCN3C(=O)OC[C@@H]3C2)c(-c2cnn(C(F)F)c2)cn1 [Compound 185] | 25.2 nM |  | 126 nM |  | 263 nM | 152 nM
